What all share (format): in vivo
Experiment [1] concerns Plutella xylostella (Diamond Back Moth). Kind of experiment: Example B3: Activity against Plutella xylostella (diamond back moth), artificial diet. The following applies: 192 h, application rate 200 ppm, eggs on artificial diet, 8 days after infestation, read-out: effect in at least one of the two categories (mortality or growth inhibition). On the procedure: Example B3: Activity Against Plutella xylostella (Diamond Back Moth)
24-well microtiter plates with artificial diet were treated with aqueous test solutions prepared from 10′000 ppm DMSO stock solutions by pipetting. After drying, Plutella eggs were pipetted through a plastic stencil onto a gel blotting paper and the plate was closed with it. The samples were assessed for mortality and growth inhibition in comparison to untreated samples 8 days after infestation. The following compounds gave an effect of at least 80% in at least one of the two categories (mortality or growth inhibition) at an application rate of 200 ppm: P2, P4, P5, P6, P8, P9, P10, P11, P12, P14, P15, P16, P17, P18, P19, P20, P21, P22, P23, P24, P25, P26, P27, P28, P29, P30, P31, P32, P33, P34, P35, P36, P38, P39, P40, P42, P45, P46, P47, P49, P50, P51, P52.

For experiment [2], the system named is Spodoptera littoralis (Egyptian Cotton Leaf Worm). The experiment can be described thus: Example B6: Activity against Spodoptera littoralis (Egyptian cotton leaf worm). Conditions: foliar, 72 h, application rate 200 ppm, L1 larvae on sprayed cotton leaf discs, 3 days after infestation, read-out: control (mortality, anti-feeding effect or growth inhibition). On the procedure:
Example B6: Activity Against Spodoptera littoralis (Egyptian Cotton Leaf Worm)
Cotton leaf discs were placed onto agar in 24-well microtiter plates and sprayed with aqueous test solutions prepared from 10′000 ppm DMSO stock solutions. After drying the leaf discs were infested with five L1 larvae. The samples were assessed for mortality, anti-feeding effect, and growth inhibition in comparison to untreated samples 3 days after infestation. Control of Spodoptera littoralis by a test sample is given when at least one of the categories mortality, anti-feedant effect, and growth inhibition is higher than the untreated sample.

The subject of experiment [3] is Euschistus heros (Neotropical Brown Stink Bug). The experiment can be described thus: Example B2: Activity against Euschistus heros (neotropical brown stink bug), sprayed soybean leaves. Conditions: 120 h, application rate 200 ppm, N2 nymphs on sprayed soybean leaves, 5 days after infestation, read-out: effect in at least one of the two categories (mortality or growth inhibition). On the procedure: Example B2: Activity Against Euschistus heros (Neotropical Brown Stink Bug)
Soybean leaves on agar in 24-well microtiter plates were sprayed with aqueous test solutions prepared from 10′000 ppm DMSO stock solutions. After drying the leaves were infested with N2 nymphs. The samples were assessed for mortality and growth inhibition in comparison to untreated samples 5 days after infestation.

The test system of experiment [4] is Diabrotica balteata (Corn Root Worm). The experiment can be described thus: Example B1: Activity against Diabrotica balteata (corn root worm), sprayed maize sprouts. Conditions: 96 h, application rate 200 ppm, L2 larvae on sprayed maize sprouts, 4 days after infestation, read-out: effect in at least one of the two categories (mortality or growth inhibition). On the procedure: Example B1: Activity Against Diabrotica balteata (Corn Root Worm)
Maize sprouts placed onto an agar layer in 24-well microtiter plates were treated with aqueous test solutions prepared from 10′000 ppm DMSO stock solutions by spraying. After drying, the plates were infested with L2 larvae (6 to 10 per well). The samples were assessed for mortality and growth inhibition in comparison to untreated samples 4 days after infestation.

Consider `CCS(=O)(=O)c1cc(NC)cnc1-c1cc2ccn(CC(F)(F)C(F)(F)F)c2cn1` [Compound P18, 5-ethylsulfonyl-N-methyl-6-[1-(2,2,3,3,3-pentafluoropropyl)pyrrolo[2,3-c]pyridin-5-yl]pyridin-3-amine], for which the percent effect (mortality or growth inhibition) at 200 ppm in experiment [1], in experiment [3] and in experiment [4] was no less than 80% in each case. Moreover, the percent control (mortality, anti-feedant effect or growth inhibition) at 200 ppm in experiment [2] was no less than 80%.
Turning to `CCSc1cc(C2CC2)c[n+]([O-])c1-c1cc2ncn(CC(F)(F)C(F)(F)F)c2cn1` [PN4, 6-(5-cyclopropyl-3-ethylsulfanyl-1-oxido-pyridin-1-ium-2-yl)-3-(2,2,3,3,3-pentafluoropropyl)imidazo[4,5-c]pyridine], the percent effect (mortality or growth inhibition) at 200 ppm in experiment [3] was no less than 80%.
On to `CCSc1cc(C(F)(F)F)cnc1-c1cc2cnn(CC(F)(F)C(F)(F)F)c2cn1` [Compound P30, 5-[3-ethylsulfanyl-5-(trifluoromethyl)-2-pyridyl]-1-(2,2,3,3,3-pentafluoropropyl) pyrazolo[3,4-c] pyridine], for which the percent effect (mortality or growth inhibition) at 200 ppm in experiment [1], in experiment [3] and in experiment [4] was no less than 80% in each case. In experiment [2], the percent control (mortality, anti-feedant effect or growth inhibition) at 200 ppm was no less than 80%.
With `CCSc1cc(C2(C#N)CC2)cnc1-c1cc2ncn(CC(F)(F)C(F)(F)F)c2cn1` [Compound P38, 1-[5-ethylsulfanyl-6-[3-(2,2,3,3,3-pentafluoropropyl)imidazo[4,5-c]pyridin-6-yl]-3-pyridyl] cyclopropane-carbonitrile], the percent effect (mortality or growth inhibition) at 200 ppm in experiment [1], in experiment [3] and in experiment [4] was no less than 80% in each case. Besides, the percent control (mortality, anti-feedant effect or growth inhibition) at 200 ppm in experiment [2] was no less than 80%.
Regarding `CCS(=O)(=O)c1ccc(Cl)nc1-c1cc2ccn(CC(F)(F)C(F)(F)F)c2cn1` [Compound P36, 5-(6-chloro-3-ethylsulfonyl-2-pyridyl)-1-(2,2,3,3,3-pentafluoropropyl) pyrrolo[2,3-c]pyridine], the percent effect (mortality or growth inhibition) at 200 ppm in experiment [1] and in experiment [4] was no less than 80% in each case. Also, the percent control (mortality, anti-feedant effect or growth inhibition) at 200 ppm in experiment [2] is no less than 80%.
In the case of `CCSc1cc(C(C)(C)C#N)cnc1-c1cc2ccn(CC(F)(F)C(F)(F)F)c2cn1` [Compound P29, 2-[5-ethylsulfanyl-6-[1-(2,2,3,3,3-pentafluoropropyl)pyrrolo[2,3-c]pyridin-5-yl]-3-pyridyl]-2-methyl-propanenitrile], the percent effect (mortality or growth inhibition) at 200 ppm in experiment [1] and in experiment [4] was no less than 80% in each case.
Take `CCS(=O)(=O)c1cc(-n2ccc(C(F)(F)F)n2)cnc1-c1cc2cnn(CC(F)(F)C(F)(F)F)c2cn1` [Compound P45, 5-[3-ethylsulfonyl-5-[3-(trifluoromethyl)pyrazol-1-yl]-2-pyridyl]-1-(2,2,3,3,3-pentafluoropropyl) pyrazolo[3,4-c]pyridine]: the percent effect (mortality or growth inhibition) at 200 ppm in experiment [1], in experiment [3] and in experiment [4] was no less than 80% each time. Moreover, the percent control (mortality, anti-feedant effect or growth inhibition) at 200 ppm in experiment [2] was no less than 80%.
With `CCSc1cc(-n2ccc(Cl)n2)cnc1-c1cc2cnn(CC(F)(F)C(F)(F)F)c2cn1` [Compound P39, 5-[5-(3-chloropyrazol-1-yl)-3-ethylsulfanyl-2-pyridyl]-1-(2,2,3,3,3-pentafluoropropyl) pyrazolo[3,4-c]pyridine], the percent effect (mortality or growth inhibition) at 200 ppm in experiment [1] and in experiment [4] was no less than 80% in each case. The percent control (mortality, anti-feedant effect or growth inhibition) at 200 ppm in experiment [2] is no less than 80%.
Regarding `CCSc1cc(-n2ccc(C(F)(F)F)n2)cnc1-c1cc2cnn(CC(F)(F)C(F)(F)F)c2cn1` [Compound P50, 5-[3-ethylsulfanyl-5-[3-(trifluoromethyl)pyrazol-1-yl]-2-pyridyl]-1-(2,2,3,3,3-pentafluoropropyl) pyrazolo[3,4-c]pyridine], the percent effect (mortality or growth inhibition) at 200 ppm in experiment [1] and in experiment [4] was no less than 80% in each case. In addition, the percent control (mortality, anti-feedant effect or growth inhibition) at 200 ppm in experiment [2] is no less than 80%.
`CCS(=O)(=O)c1ccc(-n2cncn2)nc1-c1cc2ccn(CC(F)(F)C(F)(F)F)c2cn1` [Compound P35, 5-[3-ethylsulfonyl-6-(1,2,4-triazol-1-yl)-2-pyridyl]-1-(2,2,3,3,3-pentafluoropropyl) pyrrolo[2,3-c]pyridine]: the percent effect (mortality or growth inhibition) at 200 ppm in experiment [1] and in experiment [4] was no less than 80% in each case. In experiment [2], the percent control (mortality, anti-feedant effect or growth inhibition) at 200 ppm is no less than 80%.
With `CCS(=O)(=O)c1ccc(Cl)nc1-c1cc2cnn(CC(F)(F)C(F)(F)F)c2cn1` [Compound P49, 5-(6-chloro-3-ethylsulfonyl-2-pyridyl)-1-(2,2,3,3,3-pentafluoropropyl) pyrazolo[3,4-c]pyridine], the percent effect (mortality or growth inhibition) at 200 ppm in experiment [1], in experiment [3] and in experiment [4] was no less than 80% in each case. Further, in experiment [2], the percent control (mortality, anti-feedant effect or growth inhibition) at 200 ppm is no less than 80%.
As to `CCSc1cc(C2(C#N)CC2)c[n+]([O-])c1-c1cc2ncn(CC(F)(F)C(F)(F)F)c2cn1` [PN8, 1-[5-ethylsulfanyl-1-oxido-6-[3-(2,2,3,3,3-pentafluoropropyl)imidazo[4,5-c]pyridin-6-yl]pyridin-1-ium-3-yl]cyclopropane-carbonitrile], the percent effect (mortality or growth inhibition) at 200 ppm in experiment [3] is no less than 80%.
Consider `CCS(=O)(=O)c1cc(C2CC2)cnc1-c1cc2cnn(CC(F)(F)C(F)(F)F)c2cn1` [Compound P28, 5-(5-cyclopropyl-3-ethylsulfonyl-2-pyridyl)-1-(2,2,3,3,3-pentafluoropropyl) pyrazolo[3,4-c] pyridine], for which the percent effect (mortality or growth inhibition) at 200 ppm in experiment [1], in experiment [3] and in experiment [4] was no less than 80% each time. In experiment [2], the percent control (mortality, anti-feedant effect or growth inhibition) at 200 ppm is no less than 80%.
`CCSc1cc(C2CC2)cnc1-c1cc2ncn(CC(F)(F)C(F)(F)F)c2cn1` [Compound P9, 6-(5-cyclopropyl-3-ethylsulfanyl-2-pyridyl)-3-(2,2,3,3,3-pentafluoropropyl) imidazo[4,5-c]pyridine]: the percent effect (mortality or growth inhibition) at 200 ppm in experiment [1] and in experiment [4] was no less than 80% in each case.
For the compound `CCSc1cc(C2(C#N)CC2)cnc1-c1cc2ccn(CC(F)(F)C(F)(F)F)c2cn1` [Compound P37, 1-[5-ethylsulfanyl-6-[1-(2,2,3,3,3-pentafluoropropyl)pyrrolo[2,3-c]pyridin-5-yl]-3-pyridyl] cyclopropane-carbonitrile], the percent control (mortality, anti-feedant effect or growth inhibition) at 200 ppm in experiment [2] is no less than 80%. Further, the percent effect (mortality or growth inhibition) at 200 ppm in experiment [4] was no less than 80%.
With `CCS(=O)(=O)c1cc(C2CC2)cnc1-c1cc2ccn(CC(F)(F)C(F)(F)F)c2cn1` [Compound P51, 5-(5-cyclopropyl-3-ethylsulfonyl-2-pyridyl)-1-(2,2,3,3,3-pentafluoropropyl) pyrrolo[2,3-c]pyridine], the percent effect (mortality or growth inhibition) at 200 ppm in experiment [1] and in experiment [4] was no less than 80% throughout. For the same compound, the percent control (mortality, anti-feedant effect or growth inhibition) at 200 ppm in experiment [2] was no less than 80%.
